Measurements: patent US12319659B2, “Selective ligand for dopamine D3 receptor, preparation method therefor, and pharmaceutical application thereof” (Shenzhen Linglan Bio-Pharmaceutical Technology Co., Ltd, priority 2017, dated 2025)
Counter-ions that a name gives are not always drawn.

Each compound was assayed against T1, dopamine D2 receptor (Homo sapiens, UniProt P14416) (assay: Competitive inhibition test using radioligands ([3H]-sulpiride), D2 receptor). Conditions: [3H]-sulpiride competition, HEK-293 cells; read-out: KiD2R.
T1 construct: expressed in transfected cells; host or cells: Human embryonic kidney-293 cells
Format: binding
Procedure: Human embryonic kidney-293 cells were cultured in fresh MEM medium containing 10% fetal bovine serum, 100 units of penicillin, and 100 μg/mL streptomycin at 37° C. under 5% CO2. Cells were transfected with DNA plasmids of dopamine D2 and D3 receptors respectively by using polyethylenimine. After transfection for 4 hours, medium was replaced with fresh MEM medium containing fetal bovine serum and the cells were further cultured for 24 hours. The cells were seeded into 24-well plates and cultured for 14-16 hours or overnight. After the medium was discarded, the cells were rinsed with pre-cooled serum-free MEM. Radioligand ([^3H]-sulpiride) and various concentrations of compounds were added into the adherent cells, and incubated in a bath at 4° C. for 150 minutes. The cells were rinsed three times with pre-cooled MEM containing 10 mM HEPES to remove unbound ligands. After the medium was completely removed, the cells were lysed with 1% sodium lauryl sulfate. The remaining radioligands were detected with a liquid scintillation counter to calculate the relative amount of bound compounds.

T1 sequence (P14416 whole entry): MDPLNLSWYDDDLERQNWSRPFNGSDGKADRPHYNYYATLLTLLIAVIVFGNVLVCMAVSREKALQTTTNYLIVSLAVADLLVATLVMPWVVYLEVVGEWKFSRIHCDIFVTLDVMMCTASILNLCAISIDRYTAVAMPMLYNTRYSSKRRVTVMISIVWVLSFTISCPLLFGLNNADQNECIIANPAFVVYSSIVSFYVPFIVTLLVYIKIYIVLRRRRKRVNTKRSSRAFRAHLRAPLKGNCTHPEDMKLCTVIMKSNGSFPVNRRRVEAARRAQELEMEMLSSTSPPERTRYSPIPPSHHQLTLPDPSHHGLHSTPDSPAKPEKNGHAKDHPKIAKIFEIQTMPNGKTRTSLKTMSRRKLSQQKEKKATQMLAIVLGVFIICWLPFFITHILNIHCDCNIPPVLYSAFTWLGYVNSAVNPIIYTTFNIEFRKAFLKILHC

`O=C(NCCCCN1CCN(c2ccc(Cl)cc2Cl)CC1)c1cc2ccccc2[nH]1` [31k•HCl, N-(4-(4-(2,4-dichlorophenyl)piperazin-1-yl)butyl)-1H-indole-2-carboxamide, reference compound] was tested, and the Ki was > 23.9 µM.

Same assay, conditions: […], arylpiperazine-arylurea compounds at 100 nM, [3H]-sulpiride, HEK-293 cells (Table 2); read-out: D2 Receptor Displacement (%)

`O=C(NCCCCN1CCN(c2ccc(Cl)cc2)CC1)Nc1ccc2ccccc2n1` [7i•HCl, 1-(4-(4-(4-chlorophenyl)piperazin-1-yl)butyl)-3-(quinolin-2-yl)urea] and `O=C(NCCCCN1CCN(c2cccc(Cl)c2Cl)CC1)Nc1cnc2ccccc2c1` [8j•HCl, 1-(4-(4-(2,3-dichlorophenyl)piperazin-1-yl)butyl)-3-(quinolin-3-yl)urea] are within error of each other in inhibition: 13.4 ± 8.5% for the first, 4.8 ± 4.3% for the second.

Same assay, conditions: […], arylpiperazine-phthalimide compounds at 100 nM, [3H]-sulpiride, HEK-293 cells (Table 1); read-out: D2 Receptor Displacement (%)

`O=C1c2ccccc2C(=O)N1CCCCN1CCN(c2ccc(Cl)cc2Cl)CC1` [3k•HCl, 2-(4-(4-(2,4-dichlorophenyl)piperazin-1-yl)butyl)isoindoline-1,3-dione] and `O=C1c2ccccc2C(=O)N1CCCCN1CCN(c2ccccc2Cl)CC1` [Compound 3g, 2-(4-(4-(2-chlorophenyl)piperazin-1-yl)butyl)isoindoline-1,3-dione] are within error of each other in inhibition: 30.2 ± 3.4% for the first, 28.7 ± 3.3% for the second.

First: O=C1c2ccccc2C(=O)N1CCCCN1CCN(c2ccccc2F)CC1 [Compound 3a, 2-(4-(4-(2-fluorophenyl)piperazin-1-yl)butyl)isoindoline-1,3-dione]
Second: O=C1c2ccccc2C(=O)N1CCCCN1CCN(c2ccc(F)cc2)CC1 [Compound 3c, 2-(4-(4-(4-fluorophenyl)piperazin-1-yl)butyl)isoindoline-1,3-dione]
The inhibition of the first is higher: 31.8 ± 3.3% for the first, -6.3 ± 4% for the second.

For `O=C1c2ccccc2C(=O)N1CCCCN1CCN(c2cccc(Cl)c2)CC1` [Compound 3h, 2-(4-(4-(3-chlorophenyl)piperazin-1-yl)butyl)isoindoline-1,3-dione], the inhibition was 64.8 ± 3.5%.

Same assay, conditions: arylpiperazine-arylurea compounds at 100 nM, [3H]-sulpiride, HEK-293 cells (Table 2)

First: O=C(NCCCCN1CCN(c2cc(C(F)(F)F)ccc2F)CC1)Nc1cnc2ccccc2c1 [8n•HCl, 1-(4-(4-(2-fluoro-5-(trifluoromethyl)phenyl)piperazin-1-yl)butyl)-3-(quinolin-3-yl)urea]
Second: O=C(NCCCCN1CCN(c2cccc(C(F)(F)F)c2)CC1)Nc1cnc2ccccc2c1 [8p•HCl, 1-(4-(4-(3-(trifluoromethyl)phenyl)piperazin-1-yl)butyl)-3-(quinolin-3-yl)urea]
The “D2 Receptor Displacement (%)” value of the first is lower: 10.7 ± 4.0% for the first, 84.1 ± 1.8% for the second.

First: O=C(NCCCCN1CCN(c2ccc(Cl)cc2)CC1)Nc1nc2ccccc2s1 [21i•HCl, 1-(benzothiazol-2-yl)-3-(4-(4-(4-chlorophenyl)piperazin-1-yl)butyl)urea]
Second: O=C(NCCCCN1CCN(c2ccc(Cl)cc2Cl)CC1)Nc1nc2ccccc2s1 [21k•HCl, 1-(benzothiazol-2-yl)-3-(4-(4-(2,4-dichlorophenyl)piperazin-1-yl)butyl)urea]
The “D2 Receptor Displacement (%)” value of the first is higher: 33.4 ± 5.9% for the first, 19.0 ± 1.4% for the second.

For `O=C(NCCCCN1CCN(c2cccc(Cl)c2Cl)CC1)Nc1nc2ccccc2s1` [21j•HCl, 1-(benzothiazol-2-yl)-3-(4-(4-(2,3-dichlorophenyl)piperazin-1-yl)butyl)urea], the “D2 Receptor Displacement (%)” value was 52.1 ± 2.0%.

Same assay, conditions: arylpiperazine-phthalimide compounds at 100 nM, [3H]-sulpiride, HEK-293 cells (Table 1)

`O=C1c2ccccc2C(=O)N1CCCCN1CCN(c2ccc(Cl)cc2)CC1` [3i•HCl, 2-(4-(4-(4-chlorophenyl)piperazin-1-yl)butyl)isoindoline-1,3-dione] and `O=C1c2ccccc2C(=O)N1CCCCN1CCN(c2c(F)cccc2F)CC1` [Compound 3f, 2-(4-(4-(2,6-fluorophenyl)piperazin-1-yl)butyl)isoindoline-1,3-dione] are within error of each other in “D2 Receptor Displacement (%)” value: 16.3 ± 4.2% for the first, 10.3 ± 6.1% for the second.

Compared with `O=C1c2ccccc2C(=O)N1CCCCN1CCN(c2cccc(C(F)(F)F)c2)CC1` [3p•HCl, 2-(4-(4-(3-(trifluoromethyl)phenyl)piperazin-1-yl)butyl)isoindoline-1,3-dione], `O=C1c2ccccc2C(=O)N1CCCCN1CCN(c2ccc(F)cc2F)CC1` [Compound 3e, 2-(4-(4-(2,4-fluorophenyl)piperazin-1-yl)butyl)isoindoline-1,3-dione] is lower in “D2 Receptor Displacement (%)” value: 37.9 ± 2.8% for the first, 4.8 ± 6.5% for the second.
